Values quoted from earlier work, collected in patent US20100087475A1, “PHARMACEUTICAL COMPOUNDS” (Biovali Laboratories International (Barbados) S.R.L., priority 2008, published 2010).

Molecular target: VMAT2 (Homo sapiens, UniProt Q05940)
Conditions: Erickson et al. (1996); cited from earlier work

Sequence of VMAT2 (Q05940 whole entry): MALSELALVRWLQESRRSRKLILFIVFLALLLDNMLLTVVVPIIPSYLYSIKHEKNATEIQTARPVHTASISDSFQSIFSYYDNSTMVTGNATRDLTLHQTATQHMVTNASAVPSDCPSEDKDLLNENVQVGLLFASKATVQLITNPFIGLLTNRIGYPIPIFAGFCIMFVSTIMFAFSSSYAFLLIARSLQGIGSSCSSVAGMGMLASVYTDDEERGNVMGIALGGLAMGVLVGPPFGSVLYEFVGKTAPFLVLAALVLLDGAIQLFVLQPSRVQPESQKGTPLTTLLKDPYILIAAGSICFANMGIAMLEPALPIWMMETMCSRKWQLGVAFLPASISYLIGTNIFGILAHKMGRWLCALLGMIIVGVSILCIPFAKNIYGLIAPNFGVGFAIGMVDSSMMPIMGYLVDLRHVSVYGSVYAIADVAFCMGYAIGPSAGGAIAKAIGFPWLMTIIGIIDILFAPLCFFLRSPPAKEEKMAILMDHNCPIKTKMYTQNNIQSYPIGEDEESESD

SMILES: COc1cc2c(cc1OC)C1CC(=O)C(CC(C)C)CN1CC2 (stereo not shown) [tetrabenazine, 1,3,4,6,7,11b-hexahydro-9,10-dimethoxy-3-(2-methylpropyl)-2H-benzo(a)quinolizin-2-one]
- affinity for VMAT2 in comparison to VMAT1: ≥ 200 fold
